From article PMC3251870 (British Journal of Cancer, 2011)

Columns and labels:
HCC15 cells = assay: MTS cell viability, HCC15; format: cell-based, human; settings: HCC15 NSCLC, MTS, 4 days
Protocol: (§1) All human cancer cell lines were maintained in RPMI media supplemented with 5% (lung and breast cancer cells) or 10% (melanoma cells) fetal bovine serum. […] Human mammary epithelial cells immortalised with telomerase were maintained in complete MEGM media from Cambrex (East Rutherford, NJ, USA).
(§2) Absorbance at 490 and 650 nm (reference wavelength) was measured by a Spectra Max (Molecular Devices, Sunnyvale, CA, USA) or a FlouroStar Omega (BMG Biosciences, Ortenberg, Germany) plate reader. Data were normalised to the untreated controls (100% viability). Each cell line was tested in 1–5 independent assays, each containing 4–8 replicates. IC50 values were calculated using DIVISA, a high-throughput software, developed in-house (manuscript in preparation), for storing and analysing drug sensitivity assays. Dose–response curves were plotted using a non-linear regression model and IC50s were determined from the fitted curves.

H292 cells = assay: MTS cell viability, H292; format: cell-based, human; settings: H292 NSCLC, 4 days
Protocol: as §1, §2

H2009 cells = assay: MTS cell viability, H2009; format: cell-based, human; settings: H2009 NSCLC, 4 days
Protocol: as §1, §2

A549 cells = assay: MTS cell viability, A549; format: cell-based, human; settings: A549 NSCLC, 4 days
Protocol: as §1, §2

H358 cells = assay: MTS cell viability, H358; format: cell-based, human; settings: H358 NSCLC, 4 days
Protocol: as §1, §2

H1395 cells = assay: MTS cell viability, H1395; format: cell-based, human; settings: H1395 NSCLC, 4 days
Protocol: as §1, §2

H820 cells = assay: MTS cell viability, H820; format: cell-based, human; settings: H820 NSCLC, 4 days
Protocol: as §1, §2

H1993 cells = assay: MTS cell viability, H1993; format: cell-based, human; settings: H1993 NSCLC, MTS, 4 days
Protocol: as §1, §2

HCC366 cells = assay: MTS cell viability, HCC366; format: cell-based, human; settings: HCC366 NSCLC, 4 days
Protocol: as §1, §2

H1437 cells = assay: MTS cell viability, H1437; format: cell-based, human; settings: H1437 NSCLC, MTS, 4 days
Protocol: as §1, §2

H2086 cells = assay: MTS cell viability, H2086; format: cell-based, human; settings: H2086 NSCLC, 4 days
Protocol: as §1, §2

HCC1500 cells = assay: MTS cell viability, HCC1500; format: cell-based, human; settings: HCC1500 breast cancer line, 4 days
Protocol: as §1, §2

[1] = system: 348T immortalised normal human mammary epithelial cells; assay: MTS cell viability, 348T; format: cell-based; settings: 4 days
Protocol: as §1, §2

HCC1954 cells = assay: MTS cell viability, HCC1954; format: cell-based, human; settings: HCC1954 breast cancer line, 4 days
Protocol: as §1, §2

MCF-10 cells = assay: MTS cell viability, MCF-10; format: cell-based, human; settings: MCF-10, MTS, 4 days
Protocol: as §1, §2

[2] = system: 1585T immortalised normal human mammary epithelial cells; assay: MTS cell viability, 1585T; format: cell-based; settings: 4 days
Protocol: as §1, §2

SKMEL5 melanoma cells = assay: MTS cell viability, SKMEL5; format: cell-based, human; settings: 4 days
Protocol: as §1, §2

UACC257 melanoma cells = assay: MTS cell viability, UACC257; format: cell-based, human; settings: 4 days
Protocol: as §1, §2

UACC62 melanoma cells = assay: MTS cell viability, UACC62; format: cell-based, human; settings: 4 days
Protocol: as §1, §2

MALME3M melanoma cells = assay: MTS cell viability, MALME3M; format: cell-based, human; settings: 4 days
Protocol: as §1, §2

SKMEL2 melanoma cells = assay: MTS cell viability, SKMEL2; format: cell-based, human; settings: SKMEL2 melanoma, MTS, 4 days
Protocol: as §1, §2

[3] = system: MEL270 uveal melanoma cells; assay: MTS cell viability, MEL270; format: cell-based, human; settings: 4 days
Protocol: as §1, §2

[4] = system: OCM1 uveal melanoma cells; assay: MTS cell viability, OCM1; format: cell-based, human; settings: 4 days
Protocol: as §1, §2

[5] = system: OCM3 uveal melanoma cells; assay: MTS cell viability, OCM3; format: cell-based, human; settings: 4 days
Protocol: as §1, §2

[6] = system: HBEC3KT human bronchial epithelial cells; assay: MTS cell viability, HBEC3KT; format: cell-based; settings: 4 days
Protocol: as §1, §2

[7] = system: HBEC15KT human bronchial epithelial cells; assay: MTS cell viability, HBEC15KT; format: cell-based; settings: 4 days
Protocol: as §1, §2

[8] = system: HBEC30KT human bronchial epithelial cells; assay: MTS cell viability, HBEC30KT; format: cell-based; settings: HBEC30KT (normal, matched to HCC4017), 4 days
Protocol: as §1, §2

[9] = system: HCC4017 lung cancer cells; assay: MTS cell viability, HCC4017; format: cell-based, human; settings: HCC4017 (lung cancer, matched to HBEC30KT), MTS, 4 days
Protocol: as §1, §2

[10] = system: HBEC34KT human bronchial epithelial cells; assay: MTS cell viability, HBEC34KT; format: cell-based; settings: HBEC34KT (normal, matched to HCC4018), 4 days
Protocol: as §1, §2

Melanocytes = assay: MTS cell viability, primary melanocytes; format: cell-based, human; settings: 4 days
Protocol: as §1, §2

[11] = system: total HDAC activity, C127 cell extracts; assay: Total HDAC activity in cell extracts treated in vitro; format: biochemical
Source text: HDAC2 was purified as described below.

[12] = system: histone 4 acetylation in H358 cells; assay: Western blot, acetylated histone 4; format: cell-based, human; settings: 4 h
Protocol: (§3) Exponentially growing cells were treated with the appropriate compounds and harvested 4 or 24 h later in a standard nuclear lysis buffer and whole cell lysates were quantified. Equal amounts of total protein were loaded onto 4–12% Bis-Tris SDS gels and subjected to electrophoresis. After transferring onto nitrocellulose membranes, blots were probed for acetylated tubulin (Sigma, St Louis, MO, USA; T6793), acetylated histone 3 (Millipore/Upstate #06-599), acetylated histone 4 (Millipore/Upstate #07-329) or trimethylated histone 3 at lysine 9 (Millipore/Upstate #07-523). Actin (Santa Cruz, Santa Cruz, CA, USA; #1616) and HDAC1 (Affinity Bioreagents, Rockford, IL, USA; #PA1-860) were probed as loading controls. Quantification of bands in films was performed using two independent methods, which yielded similar results, Image J (NIH public software) and Quantity one (Bio-Rad, Hercules, CA, USA). The average of the two methods±s.e.m. is shown as specified in figure legends. For the MDR western analysis, a primary antibody against P-glycoprotein from Calbiochem (Darmstadt, Germany) was used according to the manufacturer's recommendations and HSP90 (Santa Cruz) was used as a loading control.

[13] = system: histone 3 trimethylated at lysine 9 in H358 cells; assay: Western blot, histone 3 lysine 9 trimethylation; format: cell-based, human
Protocol: as §3

SMILES | IC50 (HCC15 cells) [nM] | IC50 (H292 cells) [nM] | IC50 (H2009 cells) [nM] | IC50 (A549 cells) [nM] | IC50 (H358 cells) [nM] | IC50 (H1395 cells) [nM] | IC50 (H820 cells) [nM] | IC50 (H1993 cells) [nM] | IC50 (HCC366 cells) [nM] | IC50 (H1437 cells) [nM] | IC50 (H2086 cells) [nM] | IC50 (HCC1500 cells) [nM] | IC50 [1] [nM] | IC50 (HCC1954 cells) [nM] | IC50 (MCF-10 cells) [nM] | IC50 [2] [nM] | IC50 (SKMEL5 melanoma cells) [nM] | IC50 (UACC257 melanoma cells) [nM] | IC50 (UACC62 melanoma cells) [nM] | IC50 (MALME3M melanoma cells) [nM] | also measured
C/C=C1\NC(=O)[C@H]2CSSCC/C=C/[C@H](CC(=O)N[C@H](C(C)C)C(=O)N2)OC(=O)[C@H](C(C)C)NC1=O [Depsipeptide, depsipeptide] | 6.4 | 0.7 | 0.9 | 2 | 1.1 | 5.3 | 4 | 1.2 | 3.1 | 0.5 | 3.8 | 1.5 | 1.3 | 1.5 | 2.4 | 1.3 | 1.5 | 1.6 | 0.9 | 0.7 | IC50 (SKMEL2 melanoma cells): 0.4 nM; IC50 [3]: 1.8 nM; IC50 [4]: 5.5 nM; IC50 [5]: 1.5 nM; IC50 [6]: 1 nM; IC50 [7]: 2.5 nM; IC50 [8]: 0.9 nM; IC50 [9]: 6.5 nM; IC50 [10]: 1.3 nM; IC50 (Melanocytes): 0.9 nM; inhibition of total HDAC activity in cell extracts treated in vitro ([11]; 20 nM): partly inhibited; global level of histone 4 acetylation ([12]; 25 nM): globally increased; global level of histone 3 trimethylated at lysine 9 ([13]; 25 nM): reproducibly decreased
CC(/C=C/C(=O)NO)=C\[C@@H](C)C(=O)c1ccc(N(C)C)cc1 [TSA, trichostatin A] | 7.9 | 22.5 | 38.3 | 39.7 | 40 | 41 | 55 | 93.5 | 147 | 191 | 275 | 29 | 81 | 91 | 96 | 124 | 66 | 222 | 238 | 240 | IC50 (SKMEL2 melanoma cells): 336 nM; IC50 [3]: 68 nM; IC50 [4]: 188 nM; IC50 [5]: 220 nM; IC50 [6]: 318 nM; IC50 [7]: 295 nM; IC50 [8]: 285 nM; IC50 [9]: 73 nM; IC50 [10]: 346 nM; IC50 (Melanocytes): 284 nM; inhibition of total HDAC activity in cell extracts treated in vitro ([11]; 150 nM): blocked; global level of histone 4 acetylation ([12]; 200 nM): globally increased; global level of histone 3 trimethylated at lysine 9 ([13]; 200 nM): no effect
